According to patent publication US20030185956A1, “Separation method” (priority 2000, published 2003):
≈ marks a conversion by molar mass, not a printed value.

Experiments:
[1] = Separation in model membrane reactor, water to n-decane across cellulose acetate dialysis membrane; type: physicochemical; conditions: for recovered into the decane / amount recovered into the decane: Example 5, after 2.5 days; for recovered into the decane: 20 g macerated grapefruit peel (nootkatone 4.3 mg, limonene 135 mg) in 35 ml water; for amount recovered into the decane: grapefruit peel
Description: (§1) Separation experiments were carried out in a small model membrane reactor which consisted of an upper and lower chamber separated by 0.002 m^2 of membrane. Thorough mixing was ensured by use of a magnetic stirrer with a separate stirring bar contained within each chamber. Membrane separations were carried out at room temperature (22° C.).
Gas Chromatography (g.c.)
Analysis of valencene, nootkatone, 1,2-epoxyoctane and 1-octene.
Column—SE-30 capillary (Alltech, Carnforth, Lancs, UK), ID 0.32 mm, film thickness 0.25 μm.
Temperature program 200° C. for 5 min. 10° C. min^−1
Injector/detector temperature—300° C.
Carrier gas-helium, head pressure 0.35 bar

[2] = Separation in model membrane reactor across Supor membrane; type: physicochemical; conditions: Example 3
Description: as §1

[3] = Product recovery from fungal culture broth into solvent in dialysis tubing; type: physicochemical; conditions: for recovered into the n-decane: 72 h incubation, nootkatol and nootkatone approx. 3.3 mg combined, valencene approx. 150 mg
Description: Product recovery experiments were carried out in fungal or bacterial cultures or in suspensions of fungal or bacterial cells. Reaction media contained: unreacted substrate valencene at 0.3-1.4 mg ml^−1 and the reaction products nootkatol and nootkatone in concentrations ranging from 0.02-0.2 mg ml^−1. Nootkatol and nootkatone differ from the substrate valencene by the presence of only a single hydroxyl or a single keto group respectively. [drawing 1]
Dialysis tubing (as described in Example 1) pre-soaked in deionised water, containing n-hexane (50 ml) was added to each of two separate fungal cultures. On addition of hexane filled tubing, reaction mixtures contained the following:
Culture one contained culture broth and biomass (100 ml), residual valencene (approximately 35 mg) and product nootkatone (2.3 mg). Culture two contained culture broth and biomass (100 ml), residual valencene (approximately 33 mg), product nootkatone (3.8 mg), and Tween 80 (trade mark) (1.3 g).
After 48 h extraction time (30° C., shaking at 160 rpm), 96% of nootkatone had been recovered from culture broth one into n-hexane in the dialysis tubing. The remaining nootkatone was detected in the culture broth. Valencene was not detected in the n-hexane extraction solvent. The efficiency of extraction from culture broth two was 68%. The remaining nootkatone was detected in the culture broth. A trace amount of valencene was detected in the extraction solvent.
Dialysis tubing (details described in Example 7) pre-soaked in deionised water, containing n-decane (50 ml) was added to a fungal culture medium containing: culture broth and biomass (100 ml); residual valencene (approximately 150 mg) and the products nootkatol and nootkatone (approx. 3.3 mg combined weight). After 72 h incubation (conditions described in Example 7) 100% of the nootkatol and nootkatone products had been recovered into the n-decane in the dialysis tubing. Valencene was not detected in the n-decane.

[4] = Selective extraction from water into n-decane in dialysis tubing (shaken flask); type: physicochemical; conditions: Example 6, 30° C., 45 hours; for amount present in the n-decane phase: 100 mg limonene + 20 mg carvone in 100 ml water, 50 ml n-decane, 150 rpm
Description: Dialysis tubing (cellulose acetate visking tubing MW cut off 12-14,000 Da) containing 50 ml n-decane was added to the flask and the whole incubated at 30° C. with shaking at 150 rpm for 45 hours.

physchem = conditions: 25 °C, water

Compound	recovered into the decane [1]	amount recovered into the decane [1] [mg]	recovered into the n-decane ([3]; Example 8) [%]	amount present in the n-decane phase [4] [mg]	share of amount originally added to the water phase found in n-decane [4] [%]	other results
C=C(C)[C@@H]1CCC2=CC(=O)C[C@@H](C)[C@]2(C)C1 [nootkatone]	component limonene. After 2.5 days, 28%	1.2	100			Rate of flux ([1]; Example 1, cellulose acetate, thickness 0.05 mm, M.W. cut-off 12-14,000 Da): 0.08 g nootkatone h^−1m^−2. g h^−1m^−2; Rate of flux [2]: 0.130 g h^−1m^−2 for nootkatone; recovered from culture broth into n-hexane ([3]; Example 7, culture one (no Tween 80), 48 h, 30° C., 160 rpm): 96%; efficiency of extraction into n-hexane ([3]; Example 7, culture two (with Tween 80 1.3 g), 48 h, 30° C., 160 rpm): 68%
C=C(C)[C@H]1CC=C(C)CC1 [limonene]	5%	4.6		2.0	2	
C=C(C)[C@@H]1CCC2=CC(O)C[C@@H](C)[C@]2(C)C1 (stereo partly shown) [nootkatol]			100			
C=C(C)[C@@H]1CCC2=CCC[C@@H](C)[C@]2(C)C1 [valencene]						presence in the n-hexane extraction solvent ([3]; Example 7, culture one): not detected; presence in the extraction solvent ([3]; Example 7, culture two (with Tween 80)): trace amount; presence in the n-decane ([3]; Example 8, 72 h): not detected
C=C(C)C1CC=C(C)C(=O)C1 (stereo not shown) [carvone]				8	40	solubility (physchem): ~600 µg/mL (≈ 3.99 mM)
CCCCCCC1CO1 (stereo not shown) [1,2-epoxyoctane]						Rate of flux ([1]; not told): 1.45 g h^−1m^−2 for 1,2-epoxyoctane
